Reference: US12583815B2, “Inhibitors of YAP/TAZ-TEAD oncoproteins, synthesis and use thereof” (BRIDGENE BIOSCIENCES, INC., priority 2020, dated 2026)

Target: T1, TEAD1 (Homo sapiens, UniProt P28347)
T1 construct: endogenous in cells; host or cells: MCF-7
Assay: TEAD1-Luciferase reporter assay (MCF-7 cell-based TEAD1-Luc assay)
Conditions: cells treated with compound overnight, luciferase chemiluminescence readout
Protocol: TEAD1-Luciferase Reporter Assay to Characterize the Pharmacological Properties of the Tead1 Covalent Inhibitors
FIG. 1 is a schematic illustration of the mechanism of TEAD1 inhibition by the disclosed compounds, which is the theoretical basis for the development of a TEAD-YAP/TAZ cell-based functional assay to characterize the pharmacological properties of the synthesized inhibitor compounds. The MCF-7 cell-based TEAD1-Luc assay for the IC50 measurement was performed as below. Compounds 2, 4, 5, and 7, representing different chemical scaffolds, were characterized. About 200 μL of culture medium was placed in each of the 10^4 cell/well in a 96-well plate. The next day the cells were treated with the synthesized compounds for overnight. The luciferase activity was measured with a chemiluminescent assay kit. Specifically, the plate was equilibrated at room temperature. […] and 50 μL of the medium was left inside. To each well was added 50 μL Luciferase reagents. The plates were gently rocked for more than about 15 minutes at room temperature. The luminescence signal was then read and recorded. Table 2 below summarizes the measured IC50 values for the disclosed compounds.

T1 sequence (P28347 whole entry): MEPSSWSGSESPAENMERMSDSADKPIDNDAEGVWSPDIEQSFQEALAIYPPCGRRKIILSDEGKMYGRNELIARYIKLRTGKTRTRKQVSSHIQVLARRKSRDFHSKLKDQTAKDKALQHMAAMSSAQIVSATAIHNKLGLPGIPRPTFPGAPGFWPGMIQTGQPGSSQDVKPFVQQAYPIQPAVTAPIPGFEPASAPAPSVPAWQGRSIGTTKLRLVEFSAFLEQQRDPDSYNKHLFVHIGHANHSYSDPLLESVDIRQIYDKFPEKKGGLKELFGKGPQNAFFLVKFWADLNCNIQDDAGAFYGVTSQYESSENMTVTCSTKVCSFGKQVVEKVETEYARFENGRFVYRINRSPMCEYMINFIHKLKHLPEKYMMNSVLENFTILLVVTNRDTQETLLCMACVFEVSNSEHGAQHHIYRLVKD

In the case of `C=CC(=O)Nc1ccc(-c2cc(C(F)(F)F)no2)c(Cl)c1` [Compound 32, N-(3-chloro-4-(3-(trifluoromethyl)isoxazol-5-yl)phenyl)acrylamide], the IC50 is reported as at most 100 nM.

`C=CC(=O)Nc1cccc(Oc2cc(C(F)(F)F)ccn2)c1` [Compound 13, N-(3-((4-(trifluoromethyl)pyridin-2-yl)oxy)phenyl)acrylamide] gave an IC50 of at most 100 nM.

Work on `C=CC(=O)Nc1ccc(-c2cc(C(F)(F)F)on2)cc1` [Compound 28, N-(4-(5-(trifluoromethyl)isoxazol-3-yl)phenyl)acrylamide] yielded an IC50 of at most 100 nM.

`C=CC(=O)Nc1ccc2c(Oc3ccc(C(F)(F)F)cn3)cccc2c1` [Compound 21, N-(5-((5-(trifluoromethyl)pyridin-2-yl)oxy)naphthalen-2-yl)acrylamide] gave an IC50 of at most 100 nM.

`C=CC(=O)N1CC(Oc2ccc(C(F)(F)F)cc2)C1` [Compound 56, 1-(3-(4-(trifluoromethyl)phenoxy)azetidin-1-yl)prop-2-en-1-one] showed an IC50 of 100 to 5000 nM.

Work on `C=CC(=O)N1CC(Cc2ccc(C(F)(F)F)cc2)C1` [Compound 59, 1-(3-(4-(trifluoromethyl)benzyl)azetidin-1-yl)prop-2-en-1-one] yielded an IC50 of 100 to 5000 nM.

Compound `C=CC(=O)Nc1ccc(-c2ccn(CCCCC)n2)cc1` [Compound 24, N-(4-(1-pentyl-1H-pyrazol-3-yl)phenyl)acrylamide] has an IC50 of at most 100 nM.

Work on `C=CC(=O)Nc1ccc(-c2cc(C(F)(F)F)sn2)cc1` [Compound 54, N-(4-(5-(trifluoromethyl)isothiazol-3-yl)phenyl)acrylamide] yielded an IC50 of at most 100 nM.

`C=CC(=O)Nc1ccc(-c2nocc2C(F)(F)F)cc1` [Compound 31, N-(4-(4-(trifluoromethyl)isoxazol-3-yl)phenyl)acrylamide] gave an IC50 of at most 100 nM.

`C=CC(=O)Nc1ccc2c(c1)CCc1cn(CCCCC)nc1-2` [Compound 25] was tested, and the IC50 was 100 to 5000 nM.

Compound `C=CC(=O)Nc1ccc2c(c1)OCC/C2=N\OCCCCC` [Compound 16, (E)-N-(4-((pentyloxy)imino)chroman-7-yl)acrylamide] has an IC50 of at most 100 nM.

`C=CC(=O)Nc1ccc2nc(OCCCC)ccc2c1` [Compound 18, N-(2-butoxyquinolin-6-yl)acrylamide] gave an IC50 of at most 100 nM.

`C=CC(=O)Nc1ccc2c(OCCCCC)cccc2c1` [Compound 20, N-(5-(pentyloxy)naphthalen-2-yl)acrylamide] gave an IC50 of at most 100 nM.

With `C=CC(=O)Nc1ccc(Oc2cccc(C(F)(F)F)c2)s1` [Compound 11, N-(5-(3-(trifluoromethyl)phenoxy)thiophen-2-yl)acrylamide] the IC50 was at most 100 nM.

`C=CC(=O)N1CC(NCc2cccc(C(F)(F)F)c2)C1` [Compound 60, 1-(3-((3-(trifluoromethyl)benzyl)amino)azetidin-1-yl)prop-2-en-1-one] was tested, and the IC50 was 100 to 5000 nM.

`C=CC(=O)Nc1cccc(OC2CCC(F)(F)CC2)c1` [Compound 40, N-(3-((4,4-difluorocyclohexyl)oxy)phenyl)acrylamide] gave an IC50 of at most 100 nM.

`C=CC(=O)Nc1ccc(-c2cncc(C(F)(F)F)c2)cc1` [Compound 52, N-(4-(5-(trifluoromethyl)pyridin-3-yl)phenyl)acrylamide] gave an IC50 of at most 100 nM.

Compound `C=CC(=O)Nc1ccc2c(c1)CC/C2=N/OCCCCC` [Compound 8] has an IC50 of at least 5000 nM.

With `C=CC(=O)NC1CC(COc2cccc(C(F)(F)F)c2)C1` (stereo not shown) [Compound 58, N-(3-((3-(trifluoromethyl)phenoxy)methyl)cyclobutyl)acrylamide] the IC50 was at most 100 nM.

With `C#Cc1cccc(Oc2ccc(NC(=O)C=C)cc2)c1` [Compound 3] the IC50 was at least 5000 nM.

`C#CCCCO/N=C1/CCc2cc(NC(=O)C=C)ccc21` [Compound 7] showed an IC50 of at least 5000 nM.

`C=CC(=O)Nc1cc(Oc2cccc(C(F)(F)F)c2)ccc1F` [Compound 37, N-(2-fluoro-5-(3-(trifluoromethyl)phenoxy)phenyl)acrylamide] showed an IC50 of at most 100 nM.

With `C=CC(=O)NC1CC2(CC(NCc3cccc(C(F)(F)F)c3)C2)C1` (stereo not shown) [Compound 63, N-(6-((3-(trifluoromethyl)benzyl)amino)spiro[3.3]heptan-2-yl)acrylamide] the IC50 was at most 100 nM.

Compound `CCCCCO/N=C1\CCc2cc(NC(=O)/C=C/CN(C)C)ccc21` [Compound 15, (E)-4-(dimethylamino)-N—((E)-1-((pentyloxy)imino)-2,3-dihydro-1H-inden-5-yl)but-2-enamide] has an IC50 of at most 100 nM.

Compound `C=CC(=O)NC12CC(COc3cccc(C(F)(F)F)c3)(C1)C2` [Compound 62, N-(3-((3-(trifluoromethyl)phenoxy)methyl)bicyclo[1.1.1]pentan-1-yl)acrylamide] has an IC50 of at most 100 nM.

`C=CC(=O)Nc1ccc(-c2noc(C(F)(F)F)n2)c(Cl)c1` [Compound 33, N-(3-chloro-4-(5-(trifluoromethyl)-1,2,4-oxadiazol-3-yl)phenyl)acrylamide] showed an IC50 of at most 100 nM.

In the case of `C=CC(=O)Nc1cccc(Oc2ccc(C(F)(F)F)cc2)c1` [Compound 38, N-(3-(4-(trifluoromethyl)phenoxy)phenyl)acrylamide], the IC50 is reported as at most 100 nM.

`C=CC(=O)Nc1ccc(-n2ncc(C(F)(F)F)n2)c(Cl)c1` [Compound 35, N-(3-chloro-4-(4-(trifluoromethyl)-2H-1,2,3-triazol-2-yl)phenyl)acrylamide] gave an IC50 of at most 100 nM.

In the case of `C=CC(=O)Nc1cccc(Oc2ccc(C(F)(F)F)cn2)c1` [Compound 14, N-(3-((5-(trifluoromethyl)pyridin-2-yl)oxy)phenyl)acrylamide], the IC50 is reported as at most 100 nM.

`C=CC(=O)NC1COCC(Oc2cccc(C(F)(F)F)c2)C1` (stereo not shown) [Compound 39, N-(5-(3-(trifluoromethyl)phenoxy)tetrahydro-2H-pyran-3-yl)acrylamide] was tested, and the IC50 was 100 to 5000 nM.

`C=CC(=O)Nc1cc(F)cc(Oc2ccc(C(F)(F)F)cc2)c1` [Compound 12, N-(3-fluoro-5-(4-(trifluoromethyl)phenoxy)phenyl)acrylamide] showed an IC50 of at most 100 nM.

In the case of `C=CC(=O)N[C@@H]1CC[C@@H](Oc2cccc(C(F)(F)F)c2)C1` [Compound 43, N-((1R,3R)-3-(3-(trifluoromethyl)phenoxy)cyclopentyl)acrylamide], the IC50 is reported as 100 to 5000 nM.

`C=CC(=O)NC1CC2(C1)CC(Oc1cccc(C(F)(F)F)c1)C2` (stereo not shown) [Compound 64, N-(6-(3-(trifluoromethyl)phenoxy)spiro[3.3]heptan-2-yl)acrylamide] was tested, and the IC50 was at least 5000 nM.

`C#Cc1cccc(Oc2ccccc2NC(=O)CCl)c1` [Compound 1] was tested, and the IC50 was at least 5000 nM.

`C=CC(=O)Nc1ccc(-c2cc(C(C)(C)C)on2)cc1` [Compound 65, N-(4-(5-(tert-butyl)isoxazol-3-yl)phenyl)acrylamide] was tested, and the IC50 was 100 to 5000 nM.

Compound `C=CC(=O)Nc1ccc(-c2ccn(CC(F)(F)F)n2)cc1` [Compound 55, N-(4-(1-(2,2,2-trifluoroethyl)-1H-pyrazol-3-yl)phenyl)acrylamide] has an IC50 of 100 to 5000 nM.

`C=CC(=O)Nc1cc(F)cc(Oc2cccc(C(F)(F)F)c2)c1` [Compound 36, N-(3-fluoro-5-(3-(trifluoromethyl)phenoxy)phenyl)acrylamide] was tested, and the IC50 was at most 100 nM.

Work on `C=CC(=O)Nc1cccc(Oc2cccc(C(F)(F)F)c2)c1` [Compound 4] yielded an IC50 of at most 100 nM.

Work on `C=CC(=O)Nc1ccc2cc(OCCCC)ccc2c1` [Compound 17, N-(6-butoxynaphthalen-2-yl)prop-2-enamide] yielded an IC50 of at most 100 nM.

With `C=CC(=O)Nc1ccc2c(c1)CCC/C2=N\OCCCCC` [Compound 6] the IC50 was at least 5000 nM.

`C=CC(=O)NC1CC(OCc2cccc(C(F)(F)F)c2)C1` (stereo not shown) [Compound 61, N-(3-((3-(trifluoromethyl)benzyl)oxy)cyclobutyl)acrylamide] showed an IC50 of at most 100 nM.

Compound `C=CC(=O)N[C@@H]1CC[C@H](Oc2cccc(C(F)(F)F)c2)C1` (single isomer, unassigned) [Compound 41, N-((1R*,3S*)-3-(3-(trifluoromethyl)phenoxy)cyclopentyl)acrylamide] has an IC50 of at most 100 nM.

Work on `C=CC(=O)Nc1ccc(-c2cc(C(F)(F)F)cnn2)cc1` [Compound 53, N-(4-(5-(trifluoromethyl)pyridazin-3-yl)phenyl)acrylamide] yielded an IC50 of 100 to 5000 nM.

Compound `C#CCCCO/N=C1\CCCc2cc(NC(=O)C=C)ccc21` [Compound 5] has an IC50 of at least 5000 nM.

With `C=CC(=O)Nc1ccc2c(c1)CCC/C2=N\OCCOCC` [Compound 48, (E)-N-(5-((2-ethoxyethoxy)imino)-5,6,7,8-tetrahydronaphthalen-2-yl)acrylamide] the IC50 was at most 100 nM.

Compound `C=CC(=O)N[C@H]1CC[C@H](Oc2cccc(C(F)(F)F)c2)C1` [Compound 44, N-((1S,3S)-3-(3-(trifluoromethyl)phenoxy)cyclopentyl)acrylamide] has an IC50 of 100 to 5000 nM.

`C=CC(=O)N[C@H]1CC[C@@H](Oc2cccc(C(F)(F)F)c2)C1` (single isomer, unassigned) [Compound 42, N-((1S*,3R*)-3-(3-(trifluoromethyl)phenoxy)cyclopentyl)acrylamide] gave an IC50 of 100 to 5000 nM.

`C=CC(=O)Nc1ccc(-c2cc(C(F)(F)F)on2)c(Cl)c1` [Compound 23, N-(3-chloro-4-(5-(trifluoromethyl)isoxazol-3-yl)phenyl)acrylamide] showed an IC50 of at most 100 nM.

`C=CC(=O)NC1CCC(Oc2cc(C(F)(F)F)on2)C1` (stereo not shown) [Compound 46, N-(3-((5-(trifluoromethyl)isoxazol-3-yl)oxy)cyclopentyl)acrylamide] was tested, and the IC50 was 100 to 5000 nM.

`C=CC(=O)Nc1ccc2c(OCCCCC)nccc2c1` [Compound 19, N-(1-(pentyloxy)isoquinolin-6-yl)acrylamide] showed an IC50 of at most 100 nM.

`C=CC(=O)Nc1ccc(-c2cc(CCCC)on2)cc1` [Compound 26, N-(4-(5-butylisoxazol-3-yl)phenyl)acrylamide] gave an IC50 of at most 100 nM.

In the case of `C=CC(=O)Nc1ccc(-n2cc(C(F)(F)F)nn2)c(Cl)c1` [Compound 34, N-(3-chloro-4-(4-(trifluoromethyl)-1H-1,2,3-triazol-1-yl)phenyl)acrylamide], the IC50 is reported as at most 100 nM.
